# Data published in US20210393722A1, “COMPOSITION FOR IMPROVING SKIN BARRIER DAMAGE AND/OR ALLEVIATING SKIN INFLAMMATION, CONTAINING 3,5-DICAFFEOYLQUINIC ACID AS ACTIVE INGREDIENT” (KOREA UNIVERSITY RESEARCH AND BUSINESS FOUNDATION, priority 2018, published 2021).
# Tests used:
# Format in all cases: cell-based, human
# HaCaT cells [1] = test: Western blot of protein expression in HaCaT cells treated with 3,5-DCQA (Example 7); conditions: 1 μM 3,5-DCQA
# Experimental: (§1) HaCaT cells (human keratinocytes) were cultured in Dulbecco's modified Eagle's medium (DMEM) containing 10% fetal bovine serum (FBS) and 1% antibiotic-antimycotic solution at 37° C. in a 5% CO2 incubator. The cell culture medium was replaced with fresh DMEM every 48-72 hours. HaCaT cells within 5-17 passages were plated at a density of 1×10^4 cells per well in an 8-well chamber slide, or at a density of 1×10^6 cells per well in a 6-well culture plate in DMEM containing […] and 1% antibiotic-antimycotic solution. The cells were cultured for 24-48 hours in a 5% CO2 incubator at 37° C. Then, the medium was replaced with DMEM containing 1% fetal bovine serum. Thereafter, the cells were treated for 24 hours with DNCB (5 μM, Sigma-Aldrich, Louis, Mo., USA) or SDS (30 μM, Sigma-Aldrich) along with the AG extract (50 μg) and the PPARδ antagonist GSK0660 (Sigma-Aldrich). In addition, the cells were treated with 1 μM 3,5-dicaffeoylquinic acid (3,5-DCQA). The HaCaT cells were donated by Dr. Sang-Wook Son. All the reagents for cell culture were purchased from Welgene Inc. (Daegu, Korea). The concentrations of all the reagents were final concentrations.
# In order to measure the protein expression of TRPV4, PPARδ, AMPK and SPTLC2 in HaCaT cells treated with 3,5-dicaffeoylquinic acid, western blot was performed after treating with the condition of Example 2.
# HaCaT cells [2] = test: Immunohistochemical staining of HaCaT cells treated with 3,5-DCQA (Example 8); conditions: 1 μM 3,5-DCQA
# Experimental: as §1
# In order to measure the protein expression of keratin, involucrin, β-defensin and TNFα in HaCaT cells treated with 3,5-dicaffeoylquinic acid, immunohistochemical staining was performed after treating with the condition of Example 2.
# The protein extracts were electrophoresed on 10% polyacrylamide gel and blotted to a nitrocellulose membrane. The nitrocellulose membrane was bound with primary and secondary antibodies sequentially, and then chemiluminescence was exposed to an X-ray film. The density for bands on the X-ray film was analyzed with the Image J program. The HaCaT cells fixed on a slide chamber were immunohistochemically stained with antibodies for keratin, involucrin, defensin and TNFα. Images were taken at 200× magnification, and the densities for the images were analyzed with the Image J program. The results were expressed as mean±SEM. The values were statistically analyzed by unpaired t-test. All the experiments were repeated three times.
# HaCaT cells [3] = test: Immunohistochemical staining of HaCaT cells treated with antagonists for TRPV4 and AMPK (Example 5); conditions: HaCaT treated with antagonist; compared to the control group
# Experimental: To investigate the effect of TRPV4 and AMPK on the expression of biomarkers related to skin barrier constituents, defense and inflammation, the protein expression for keratin, involucrin, β-defensin and TNFα was evaluated by immunohistochemical staining of HaCaT cells treated with antagonists for TRPV4 and AMPK.
# (§2) Western blot was conducted for TRPV4, AMPK and PPARδ in HaCaT cells treated with antagonists for TRPV4, PPARδ and AMPK. The HaCaT cells fixed on a slide chamber were immunohistochemically stained with antibodies for keratin, involucrin, defensin and TNFα. Images were taken at 200× magnification, and the densities for the images were analyzed with the Image J program. The protein extracts were electrophoresed on 10% polyacrylamide gel and blotted to a nitrocellulose membrane. The nitrocellulose membrane was bound with primary and secondary antibodies sequentially, and then chemiluminescence was exposed to an X-ray film. The density for bands on the X-ray film was analyzed with the Image J program. The results were expressed as mean±SEM. The values were statistically analyzed by unpaired t-test. All the experiments were repeated three times.
# HaCaT cells [4] = test: Western blot for TRPV4, PPARδ and AMPK in HaCaT cells treated with antagonists for TRPV4, PPARδ or AMPK (Example 6); conditions: HaCaT treated with antagonist
# Experimental: as §2
# To determine the priority of major regulators which are TRPV4, PPARδ and AMPK, the protein expression level of TRPV4, PPARδ and AMPK in HaCaT cells treated with antagonists for TRPV4, PPARδ or AMPK was measured by western blot.
# HaCaT cells [5] = test: Western blot of protein expression in HaCaT cells treated with DNCB or SDS with AG extract (Example 3); conditions: GSK0660 along with the AG extract
# Experimental: as §1
# For evaluation of the protein expression levels of PPARδ, AMPK and SPTLC2 in the HaCaT cells treated with SDS or DNCB together with AG, western blot was conducted after treating with the conditions of Example 2.
# The concentration of the proteins in the sample was estimated by the Bradford method. 10 μg of the extracted proteins were loaded onto 10% sodium dodecyl sulfate (SDS)-polyacrylamide gel, and protein blotting on nitrocellulose membrane was performed for 90 minutes. The membrane was blocked overnight with 5% skim milk and washed 3 times with TBS-T for 10 minutes. Primary antibodies were allowed to bind to the membrane at room temperature for 2 hours. […] Images were processed manually with Kodak GBX developer and fixer reagents (Carestream Health, Inc., Rochester, N.Y., USA) and were analyzed using the Image J program. β-Actin was used as a internal control group for normalization of the loaded proteins.
# HaCaT cells [6] = test: Immunocytochemistry of keratin, involucrin, β-defensin 1 and TNFα in HaCaT cells treated with DNCB or SDS with AG extract (Example 4); conditions: AG extract plus GSK0660
# Experimental: as §1
# In order to evaluate the expression of β-defensin 1, a representative β-defensin, together with skin barrier constituents such as keratin and involucrin and the inflammatory cytokine TNFα, immunocytochemistry (ICC) was conducted after treating with the condition of Example 2.
# Cells in a chamber slide were fixed with ice-cold methanol for 15 minutes. The fixed cells were treated with a 0.3% hydrogen peroxide (H2O2) solution containing 0.3% normal horse serum for 5 minutes to remove peroxidase activity in the cells. After washing with PBS for 5 minutes, the cells were incubated with diluted normal blocking serum for 20 minutes, followed by treatment with diluted primary antibodies for 1 hour. The primary antibodies for involucrin and TNFα were purchased from Novus (Littleton, Colo. 80120, USA). The primary antibody for β-defensin 1 was purchased from Santa Cruz Biotechnology, Inc. (Dallas, Tex., USA), and the primary antibody for pan-keratin was purchased from Abcam (Cambridge, UK). After washing with PBS, the cells were treated with secondary antibodies for 30 minutes. After washing with PBS, the cells were treated with a premixed Vectastain ABC reagent solution for 30 minutes. […]
# The protein extracts were electrophoresed on 10% polyacrylamide gel and blotted to a nitrocellulose membrane. […] The density for bands on the X-ray film was analyzed with the Image J program. […] Images were taken at 200× magnification, and the densities for the images were analyzed with the Image J program. The results were expressed as mean±SEM. The values were statistically analyzed by unpaired t-test. […]
structure (smiles),measurement,setting,value
"O=C(/C=C/c1ccc(O)c(O)c1)O[C@@H]1C[C@](O)(C(=O)O)C[C@@H](OC(=O)/C=C/c2ccc(O)c(O)c2)[C@H]1O [3,5-DCQA, 3,5-dicaffeoylquinic acid]",protein expression of AMPK,HaCaT cells [1],increased
same,protein expression of PPARδ,HaCaT cells [1],increased
same,protein expression of SPTLC2,HaCaT cells [1],increased
same,expression of TNFα,HaCaT cells [2],decreased
same,protein expression of involucrin,HaCaT cells [2],increased
same,protein expression of keratin,HaCaT cells [2],increased
same,protein expression of β-defensin 1,HaCaT cells [2],increased
c1cc(-c2cnn3cc(-c4ccc(OCCN5CCCCC5)cc4)cnc23)ccn1 [compound C],protein expression of TNFα,HaCaT cells [3],increased
same,protein expression of involucrin,HaCaT cells [3],decreased significantly
same,protein expression of keratin,HaCaT cells [3],decreased significantly
same,protein expression of β-defensin 1,HaCaT cells [3],decreased significantly
same,protein expression level for PPARδ,HaCaT cells [4],did not affect
same,protein expression level for TRPV4,HaCaT cells [4],did not affect
same,protein expression level for p-AMPK,HaCaT cells [4],decreased
COC(=O)c1sccc1S(=O)(=O)Nc1ccc(Nc2ccccc2)cc1OC [GSK0660],AG extract-induced increase in the expression of P-AMPK,HaCaT cells [5],reduced
same,AG extract-induced increase in the expression of PPARδ,HaCaT cells [5],reduced
same,AG extract-induced increase in the expression of SPTLC2,HaCaT cells [5],reduced
same,AG extract-increased involucrin protein expression,HaCaT cells [6],offset
same,AG extract-increased keratin protein expression,HaCaT cells [6],offset
same,AG extract-increased β-defensin 1 protein expression,HaCaT cells [6],offset
same,effect of the AG extract on TNFα expression,HaCaT cells [6],offset
same,protein expression level for PPARδ,HaCaT cells [4],lowered
same,protein expression level for TRPV4,HaCaT cells [4],did not change
same,protein expression level for p-AMPK,HaCaT cells [4],lowered
